Counter-ions that a name gives are not always drawn.
Columns and labels:
HMG-CoA Reductase = HMG-CoA Reductase (Homo sapiens (Human), UniProt P04035); experiment: Receptor binding assay panel: HMG-CoA Reductase; format: biochemical
Monoamine Oxidase MAO-A = Monoamine Oxidase MAO-A (Homo sapiens (Human), UniProt P21397); experiment: Receptor binding assay panel: Monoamine Oxidase MAO-A; format: biochemical
[1] = target: Nitric Oxide Synthase, Endothelial (eNOS) (Bos taurus (Bovine), UniProt P29473); experiment: Receptor binding assay panel: Nitric Oxide Synthase, Endothelial (eNOS); format: biochemical
[2] = target: Peptidase, Angiotensin Converting Enzyme (Oryctolagus cuniculus (Rabbit), UniProt P12822); experiment: Receptor binding assay panel: Peptidase, Angiotensin Converting Enzyme; format: biochemical
Peptidase, Renin = Peptidase, Renin (Homo sapiens (Human), UniProt P00797); experiment: Receptor binding assay panel: Peptidase, Renin; format: biochemical
Phosphodiesterase PDE3 = experiment: Receptor binding assay panel: Phosphodiesterase PDE3; format: biochemical, Human; conditions: 10 μM
[3] = target: Protein Tyrosine Kinase, Src (Homo sapiens (Human), UniProt P12931); experiment: Receptor binding assay panel: Protein Tyrosine Kinase, Src; format: biochemical
Adenosine A1 = Adenosine A1 (Homo sapiens (Human), UniProt P30542); experiment: Receptor binding assay panel: Adenosine A1
Adenosine A2A = Adenosine A2A (Homo sapiens (Human), UniProt P29274); experiment: Receptor binding assay panel: Adenosine A2A
Adrenergic α1A = Adrenergic α1A (Rattus norvegicus (Rat), UniProt P43140); experiment: Receptor binding assay panel: Adrenergic α1A
Adrenergic α1B = Adrenergic α1B (Rattus norvegicus (Rat), UniProt P15823); experiment: Receptor binding assay panel: Adrenergic α1B
Adrenergic β1 = Adrenergic β1 (Homo sapiens (Human), UniProt P08588); experiment: Receptor binding assay panel: Adrenergic β1
Aldosterone = Aldosterone (Rattus norvegicus (Rat), UniProt P22199); experiment: Receptor binding assay panel: Aldosterone
Androgen (Testosterone) = Androgen (Testosterone) (Homo sapiens (Human), UniProt P10275); experiment: Receptor binding assay panel: Androgen (Testosterone)
Protocol: (§1) Radioligand binding to a panel of receptors was carried out by Eurofins on crude membrane preparations according to published procedures and by using appropriate reference standard (Eurofin, Taiwan, compound code CVie216-3 (1226840), study #TW04-0004235, quote #TW04-0004235-Q04, for Cvie Therapeutics Limited, Taiwan). […] was tested at the concentration of 10 μM.

Angiotensin AT1 = Angiotensin AT1 (Homo sapiens (Human), UniProt P30556); experiment: Receptor binding assay panel: Angiotensin AT1
[4] = tested on: Calcium Channel L-type, Dihydropyridine; experiment: Receptor binding assay panel: Calcium Channel L-type, Dihydropyridine; set-up: species or system rat; conditions: 10 μM
Dopamine D1 = Dopamine D1 (Homo sapiens (Human), UniProt P21728); experiment: Receptor binding assay panel: Dopamine D1
Dopamine D2s = Dopamine D2s (Homo sapiens (Human), UniProt P14416); experiment: Receptor binding assay panel: Dopamine D2s
Dopamine D3 = Dopamine D3 (Homo sapiens (Human), UniProt P35462); experiment: Receptor binding assay panel: Dopamine D3
Estrogen ERα = Estrogen ERα (Homo sapiens (Human), UniProt P03372); experiment: Receptor binding assay panel: Estrogen ERα
Estrogen ERβ = Estrogen ERβ (Homo sapiens (Human), UniProt Q92731); experiment: Receptor binding assay panel: Estrogen ERβ
[5] = tested on: GABAA, Flunitrazepam, Central; experiment: Receptor binding assay panel: GABAA, Flunitrazepam, Central; set-up: species or system rat; conditions: 10 μM
Protocol: as §1

[6] = tested on: Glutamate, NMDA, Phencyclidine; experiment: Receptor binding assay panel: Glutamate, NMDA, Phencyclidine; set-up: species or system rat; conditions: 10 μM
Protocol: as §1

Histamine H1 = Histamine H1 (Homo sapiens (Human), UniProt P35367); experiment: Receptor binding assay panel: Histamine H1
Imidazoline I2, Central = experiment: Receptor binding assay panel: Imidazoline I2, Central; set-up: species or system rat; conditions: 10 μM
Protocol: as §1

Insulin = Insulin (Rattus norvegicus (Rat), UniProt P15127); experiment: Receptor binding assay panel: Insulin
Muscarinic M2 = Muscarinic M2 (Homo sapiens (Human), UniProt P08172); experiment: Receptor binding assay panel: Muscarinic M2
Protocol: as §1

Muscarinic M3 = Muscarinic M3 (Homo sapiens (Human), UniProt P20309); experiment: Receptor binding assay panel: Muscarinic M3
Protocol: as §1

Muscarinic M5 = Muscarinic M5 (Homo sapiens (Human), UniProt P08912); experiment: Receptor binding assay panel: Muscarinic M5
Protocol: as §1

[7] = target: Nicotinic Acetylcholine α3β4 (Homo sapiens (Human), UniProt P30926+P32297); experiment: Receptor binding assay panel: Nicotinic Acetylcholine α3β4
Protocol: as §1

Phorbol Ester = experiment: Receptor binding assay panel: Phorbol Ester; set-up: species or system mouse; conditions: 10 μM
Potassium Channel (KATP) = Potassium Channel (KATP) (Cricetus cricetus (Black-bellied hamster), UniProt Q09427); experiment: Receptor binding assay panel: Potassium Channel (KATP)
Protocol: as §1

[8] = tested on: Serotonin (5-Hydroxytryptamine) 5-HT1, non selective; experiment: Receptor binding assay panel: Serotonin (5-Hydroxytryptamine) 5-HT1, non selective; set-up: species or system rat; conditions: 10 μM
Sigma σ2 = Sigma σ2 (Homo sapiens (Human), UniProt Q5BJF2); experiment: Receptor binding assay panel: Sigma σ2
Sigma σ1 = Sigma σ1 (Homo sapiens (Human), UniProt Q99720); experiment: Receptor binding assay panel: Sigma σ1
Sodium Channel, Site 2 = experiment: Receptor binding assay panel: Sodium Channel, Site 2; set-up: species or system rat; conditions: 10 μM
[9] = target: Transporter, Norepinephrine (NET) (Homo sapiens (Human), UniProt P23975); experiment: Receptor binding assay panel: Transporter, Norepinephrine (NET)
Protocol: as §1

in vivo = experiment: in vivo; set-up: dose or concentration left out as unconfirmed; conditions: rat
CYP450, 19 (CYP19) = CYP450, 19 (CYP19) (Homo sapiens (Human), UniProt P11511); experiment: Receptor binding assay panel: CYP450, 19
CYP450, 19 (CYP19), sequence (P11511 whole entry): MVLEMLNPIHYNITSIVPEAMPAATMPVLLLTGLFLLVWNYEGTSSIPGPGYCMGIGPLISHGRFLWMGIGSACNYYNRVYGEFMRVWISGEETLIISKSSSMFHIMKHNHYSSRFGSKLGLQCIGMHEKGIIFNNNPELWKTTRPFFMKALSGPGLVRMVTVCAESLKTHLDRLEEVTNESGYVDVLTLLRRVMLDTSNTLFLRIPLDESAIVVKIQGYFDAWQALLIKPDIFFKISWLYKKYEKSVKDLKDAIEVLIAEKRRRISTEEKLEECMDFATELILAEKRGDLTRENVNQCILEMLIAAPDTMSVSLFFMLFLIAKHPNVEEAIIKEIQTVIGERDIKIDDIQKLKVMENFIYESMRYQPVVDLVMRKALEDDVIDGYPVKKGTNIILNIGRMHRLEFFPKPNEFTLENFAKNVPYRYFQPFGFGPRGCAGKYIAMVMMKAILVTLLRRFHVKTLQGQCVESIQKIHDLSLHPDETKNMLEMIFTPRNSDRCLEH

Muscarinic M3, sequence (P20309 whole entry, looked up): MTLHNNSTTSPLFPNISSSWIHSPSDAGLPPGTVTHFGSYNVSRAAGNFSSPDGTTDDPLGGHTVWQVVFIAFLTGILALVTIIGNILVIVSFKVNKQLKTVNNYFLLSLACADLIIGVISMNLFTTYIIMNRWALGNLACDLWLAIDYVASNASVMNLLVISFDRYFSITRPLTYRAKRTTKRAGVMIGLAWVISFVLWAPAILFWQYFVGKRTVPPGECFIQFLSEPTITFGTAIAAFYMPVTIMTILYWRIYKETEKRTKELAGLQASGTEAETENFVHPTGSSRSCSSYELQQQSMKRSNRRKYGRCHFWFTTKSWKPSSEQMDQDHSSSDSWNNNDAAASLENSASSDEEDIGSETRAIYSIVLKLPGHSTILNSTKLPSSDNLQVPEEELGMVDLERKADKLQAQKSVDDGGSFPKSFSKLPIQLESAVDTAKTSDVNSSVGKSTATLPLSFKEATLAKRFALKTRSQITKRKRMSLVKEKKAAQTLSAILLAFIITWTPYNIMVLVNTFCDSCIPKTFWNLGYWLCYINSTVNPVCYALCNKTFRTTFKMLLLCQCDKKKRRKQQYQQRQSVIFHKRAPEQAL
Histamine H1, sequence (P35367 whole entry): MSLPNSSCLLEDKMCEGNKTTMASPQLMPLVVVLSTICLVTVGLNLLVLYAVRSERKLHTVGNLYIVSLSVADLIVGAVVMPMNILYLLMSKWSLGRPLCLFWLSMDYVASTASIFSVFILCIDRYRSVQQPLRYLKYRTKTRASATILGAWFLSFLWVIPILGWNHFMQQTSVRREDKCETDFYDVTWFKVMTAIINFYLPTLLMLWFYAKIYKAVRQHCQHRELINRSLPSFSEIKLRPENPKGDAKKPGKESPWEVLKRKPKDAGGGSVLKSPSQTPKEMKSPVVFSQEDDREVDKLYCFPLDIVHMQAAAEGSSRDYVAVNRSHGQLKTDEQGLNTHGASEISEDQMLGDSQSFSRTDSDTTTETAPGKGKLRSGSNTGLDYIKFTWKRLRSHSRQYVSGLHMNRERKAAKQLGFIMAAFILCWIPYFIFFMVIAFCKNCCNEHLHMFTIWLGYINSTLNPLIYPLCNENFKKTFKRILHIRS
Muscarinic M2, sequence (P08172 whole entry): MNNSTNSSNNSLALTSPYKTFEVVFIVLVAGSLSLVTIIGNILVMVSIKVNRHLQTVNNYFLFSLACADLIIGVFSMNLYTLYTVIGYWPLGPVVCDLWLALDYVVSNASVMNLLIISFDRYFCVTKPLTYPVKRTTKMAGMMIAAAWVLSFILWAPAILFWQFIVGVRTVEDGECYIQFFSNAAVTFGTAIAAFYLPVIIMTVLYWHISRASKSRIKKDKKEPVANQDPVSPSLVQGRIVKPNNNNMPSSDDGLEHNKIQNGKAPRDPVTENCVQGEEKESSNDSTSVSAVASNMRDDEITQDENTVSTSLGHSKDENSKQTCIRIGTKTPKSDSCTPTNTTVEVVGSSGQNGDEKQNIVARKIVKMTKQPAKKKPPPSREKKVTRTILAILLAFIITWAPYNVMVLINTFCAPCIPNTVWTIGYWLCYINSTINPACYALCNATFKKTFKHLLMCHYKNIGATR
Sigma σ1, sequence (Q99720 whole entry): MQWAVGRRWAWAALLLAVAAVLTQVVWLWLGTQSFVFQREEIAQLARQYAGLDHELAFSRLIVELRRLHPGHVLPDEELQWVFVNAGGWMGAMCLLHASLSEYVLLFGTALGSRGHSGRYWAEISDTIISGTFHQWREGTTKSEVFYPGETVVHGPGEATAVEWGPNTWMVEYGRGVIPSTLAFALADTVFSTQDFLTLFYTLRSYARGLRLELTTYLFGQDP
Adrenergic α1A, sequence (P43140 whole entry): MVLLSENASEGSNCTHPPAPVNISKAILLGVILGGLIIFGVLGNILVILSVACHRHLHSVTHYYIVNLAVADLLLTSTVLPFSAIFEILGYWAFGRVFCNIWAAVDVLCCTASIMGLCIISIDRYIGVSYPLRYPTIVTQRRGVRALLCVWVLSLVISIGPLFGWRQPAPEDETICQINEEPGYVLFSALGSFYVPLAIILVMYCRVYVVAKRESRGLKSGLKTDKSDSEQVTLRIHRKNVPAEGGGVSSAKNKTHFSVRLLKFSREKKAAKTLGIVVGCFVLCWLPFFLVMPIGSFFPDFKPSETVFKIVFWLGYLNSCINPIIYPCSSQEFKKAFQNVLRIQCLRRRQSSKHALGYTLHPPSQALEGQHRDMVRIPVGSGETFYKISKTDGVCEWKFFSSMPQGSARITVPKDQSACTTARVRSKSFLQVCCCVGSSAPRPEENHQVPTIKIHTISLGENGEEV
Peptidase, Renin, sequence (P00797 67-406): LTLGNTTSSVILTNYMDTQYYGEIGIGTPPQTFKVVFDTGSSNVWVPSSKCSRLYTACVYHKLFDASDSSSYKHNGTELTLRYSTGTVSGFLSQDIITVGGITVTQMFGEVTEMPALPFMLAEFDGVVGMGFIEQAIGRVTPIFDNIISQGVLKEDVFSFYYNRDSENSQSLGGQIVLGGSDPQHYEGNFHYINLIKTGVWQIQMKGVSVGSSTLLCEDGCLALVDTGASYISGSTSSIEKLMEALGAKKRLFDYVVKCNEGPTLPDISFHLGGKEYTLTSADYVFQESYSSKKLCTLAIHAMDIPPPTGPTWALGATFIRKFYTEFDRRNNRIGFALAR
Adrenergic β1, sequence (P08588 whole entry): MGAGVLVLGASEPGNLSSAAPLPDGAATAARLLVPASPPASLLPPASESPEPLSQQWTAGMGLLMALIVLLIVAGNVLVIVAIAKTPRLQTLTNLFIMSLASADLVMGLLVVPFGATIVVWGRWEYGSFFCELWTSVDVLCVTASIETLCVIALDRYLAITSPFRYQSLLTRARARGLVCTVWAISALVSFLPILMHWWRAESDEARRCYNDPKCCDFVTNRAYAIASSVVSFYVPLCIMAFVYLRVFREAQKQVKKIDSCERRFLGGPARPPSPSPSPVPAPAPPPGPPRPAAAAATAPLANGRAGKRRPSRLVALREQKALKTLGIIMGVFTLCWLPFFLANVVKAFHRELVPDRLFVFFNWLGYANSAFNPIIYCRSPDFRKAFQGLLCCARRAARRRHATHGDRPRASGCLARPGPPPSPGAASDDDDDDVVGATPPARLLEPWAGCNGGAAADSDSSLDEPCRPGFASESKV
Androgen (Testosterone), sequence (P10275 whole entry): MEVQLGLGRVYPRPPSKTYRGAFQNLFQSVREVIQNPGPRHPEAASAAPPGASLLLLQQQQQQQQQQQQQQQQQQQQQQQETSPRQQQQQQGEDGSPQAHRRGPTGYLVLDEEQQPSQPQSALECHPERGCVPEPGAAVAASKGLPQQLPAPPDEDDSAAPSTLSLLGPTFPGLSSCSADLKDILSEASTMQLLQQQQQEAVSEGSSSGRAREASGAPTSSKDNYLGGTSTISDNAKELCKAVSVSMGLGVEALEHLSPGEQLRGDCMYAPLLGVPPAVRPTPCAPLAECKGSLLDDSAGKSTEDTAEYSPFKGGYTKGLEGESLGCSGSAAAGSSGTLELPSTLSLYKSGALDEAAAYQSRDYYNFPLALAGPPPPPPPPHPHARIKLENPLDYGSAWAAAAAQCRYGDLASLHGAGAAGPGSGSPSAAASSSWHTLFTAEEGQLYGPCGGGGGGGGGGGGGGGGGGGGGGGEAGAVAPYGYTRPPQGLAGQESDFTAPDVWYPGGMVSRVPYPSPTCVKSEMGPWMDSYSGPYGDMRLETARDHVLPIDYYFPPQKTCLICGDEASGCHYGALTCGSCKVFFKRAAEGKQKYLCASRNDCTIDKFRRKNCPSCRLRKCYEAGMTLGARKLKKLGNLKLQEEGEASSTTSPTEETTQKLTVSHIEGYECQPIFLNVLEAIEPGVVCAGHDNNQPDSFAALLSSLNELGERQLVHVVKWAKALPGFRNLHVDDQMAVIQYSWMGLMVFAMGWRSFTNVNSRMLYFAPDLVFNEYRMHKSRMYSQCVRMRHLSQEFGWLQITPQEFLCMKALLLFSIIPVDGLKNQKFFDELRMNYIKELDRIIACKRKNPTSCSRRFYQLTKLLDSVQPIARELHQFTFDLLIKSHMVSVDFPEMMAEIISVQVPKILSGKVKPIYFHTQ
Dopamine D1, sequence (P21728 whole entry): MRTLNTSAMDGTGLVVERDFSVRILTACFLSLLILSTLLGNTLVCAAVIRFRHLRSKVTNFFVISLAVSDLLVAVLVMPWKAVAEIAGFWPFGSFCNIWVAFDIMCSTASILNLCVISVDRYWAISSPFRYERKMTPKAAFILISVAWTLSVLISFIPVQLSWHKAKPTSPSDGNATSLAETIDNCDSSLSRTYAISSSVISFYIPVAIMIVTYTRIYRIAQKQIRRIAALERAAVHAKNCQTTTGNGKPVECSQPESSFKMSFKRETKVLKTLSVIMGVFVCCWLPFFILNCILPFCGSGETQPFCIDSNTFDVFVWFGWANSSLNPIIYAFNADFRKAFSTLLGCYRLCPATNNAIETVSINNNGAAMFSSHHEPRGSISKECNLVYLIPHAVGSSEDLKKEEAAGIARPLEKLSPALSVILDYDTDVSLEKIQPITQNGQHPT

With `C[C@]12CC[C@H](CC(=O)O)CC1C(O)CC1C2CC[C@]2(C)C(=O)CCC12` (stereo in doubt) [CVie216-salt, 2-(6beta-hydroxy-17-oxoandrostane-3-yl) acetic acid] the inhibition at 10 µM (HMG-CoA Reductase) was -4%, the inhibition at 10 µM (Monoamine Oxidase MAO-A) was 1% and the inhibition at 10 µM [1] was 2%. The inhibition at 10 µM [2] was 7%, the inhibition at 10 µM (Peptidase, Renin) was 7% and the “% inhib” value (Phosphodiesterase PDE3) was −25%. For the same compound, the inhibition at 10 µM [3] was 2%, the inhibition at 10 µM (Adenosine A1) was -1% and the inhibition at 10 µM (Adenosine A2A) was -1%. The inhibition at 10 µM (Adrenergic α1A) was 5%, the inhibition at 10 µM (Adrenergic α1B) was 6% and the inhibition at 10 µM (Adrenergic β1) was 2%. The inhibition at 10 µM (Aldosterone) was -3%, the inhibition at 10 µM (Androgen (Testosterone)) was 6% and the inhibition at 10 µM (Angiotensin AT1) was 1%. For the same compound, the “% inhib” value [4] was −20%, the inhibition at 10 µM (Dopamine D1) was 13% and the inhibition at 10 µM (Dopamine D2s) was -4%. It also gave an inhibition at 10 µM (Dopamine D3) of 0%, an inhibition at 10 µM (Estrogen ERα) of -3% and an inhibition at 10 µM (Estrogen ERβ) of -6%. For the same compound, the “% inhib” value [5] was 1%, the “% inhib” value [6] was −7% and the inhibition at 10 µM (Histamine H1) was 12%. The “% inhib” value (Imidazoline I2, Central) was 1%, the inhibition at 10 µM (Insulin) was 4% and the inhibition at 10 µM (Muscarinic M2) was -20%. It also gave an inhibition at 10 µM (Muscarinic M3) of -6%, an inhibition at 10 µM (Muscarinic M5) of 0% and an inhibition at 10 µM [7] of -3%. For the same compound, the “% inhib” value (Phorbol Ester) was −7%, the inhibition at 10 µM (Potassium Channel (KATP)) was -11% and the “% inhib” value [8] was 12%. For the same compound, the inhibition at 10 µM (Sigma σ2) was 4%, the inhibition at 10 µM (Sigma σ1) was 2% and the “% inhib” value (Sodium Channel, Site 2) was −5%. It also gave an inhibition at 10 µM [9] of -4%, a bioavailability (in vivo) of 16.9% and an inhibition at 10 µM (CYP450, 19 (CYP19)) of 0%.

Source: patent US12503484B2, “Androstane derivatives with activity as pure or predominantly pure stimulators of SERCA2a for the treatment of heart failure” (Seismic Pharmaceuticals, priority 2019, dated 2025)
